From patent US20230069886A1, “AROMATIC SULPHONAMIDES DERIVATIVES THAT INHIBITS PDI A3, THEIR SYNTHESIS AND USE” (Uniwersytet Jagiellonski, priority 2020, published 2023)
≈ marks a conversion by molar mass, not a printed value. Blank lines part the entries; values can stand above or below the molecule they belong to.

Experiments:
[1] = test system: CaCo-2; experiment: Sulforhodamine B antiproliferative assay, 72 h, Caco-2; assay type: cell-based, human; details: normal (21% of oxygen), 72 hours exposition
[2] = test system: MCF-7; experiment: Sulforhodamine B antiproliferative assay, 72 h, normal/hypoxia, MCF-7; assay type: cell-based, human; details: for IC50 [μg/ml] MCF-7 hypoxia / IC50 [μg/ml] MCF-7 normal / IC50: 72 hours exposition; for IC50: Homo sapiens, MCF7
Experimental: (§1) Anticancer activity of selected compounds of invention, PDI A3-inhibitors has been also tested in vitro in antiproliferative assay in normoxic and hypoxic conditions as well in estrogen-stimulated cancer cells. In the experiment, cells were seeded on 96-well plates (Sarstedt, Germany) in appropriate culture medium at a density of 10^5 cells/mL 24 h before adding the tested compounds. Cells were treated with each compound in four concentrations in the range 0.1-100 μg/mL. […] After 72 h of compound treatment at 37° C., 5% CO2 humid atmosphere and in wo different oxygen level conditions: 21%—normal and <1%—hypoxia. In some experiments the MDA-MB-231 and MCF-7 cells were seeded with or without 200 nM estradiol and after 24 h the tested compounds were added. A previously described sulforhodamine B antiproliferative assay was used with minor modifications (Skehan P et al., 1990). Briefly, cells were fixed with 50 μL/well of 50% (w/v) trichloroacetic acid (Avantor Performance Materials, Gliwice, Poland). After 1 h incubation, plates were washed several times with tap water and 50 μL of 0.4% (w/v) solution of sulforhodamine B (Sigma-Aldrich, Germany) in 1% (v/v) acetic acid (Avantor Performance Materials, Gliwice, Poland) was added to each well. After 30 min incubation at room temperature, unbound dye was washed out with 1% (v/v) acetic acid, whereas bound dye was solubilized with 10 mM unbuffered TRIS (Avantor Performance Materials, Gliwice, Poland) solution. The entire procedure was performed using a BioTek EL-406 washing station (BioTek Instruments, USA). After additional 30 min, absorbance was read using a Biotek Hybrid H4 reader (BioTek Instruments, USA) at 540 nm wavelength. MTT assay was used alternatively for HL-60 cell line and in the experiment in which estrogens are added (specified in the table legend). Absorbance was measured using a Biotek Hybrid H4 reader at 570 nm wavelength for MTT assay.
(§2) Compounds at each concentration were tested in triplicate in a single experiment and each experiment was repeated at least three times independently. Results are presented as mean IC50±SD.

[3] = test system: MDA-MB-231; experiment: Sulforhodamine B antiproliferative assay, 72 h, normal/hypoxia, MDA-MB-231; assay type: cell-based, human; details: 72 hours exposition; for IC50: Homo sapiens, MDA-MB-231
Experimental: as §1, §2

[4] = test system: HT-29; experiment: Sulforhodamine B antiproliferative assay, 72 h, HT-29; assay type: cell-based, human; details: normal (21% of oxygen), 72 hours exposition
Experimental: as §1, §2

[5] = test system: CaCo-2; experiment: MTT antiproliferative assay, 48 h, Caco-2; assay type: cell-based, human
Experimental: (§3) Anticancer activity of compounds of invention, PDI A3-inhibitors has been tested in vitro in classical antiproliferative assay in various cancer cells lines. Monolayer tumor cell lines MDA-MB-231 (human mammary breast adenocarcinoma), MCF-7 (human breast adenocarcinoma, estrogen-positive), HT-1080 (human fibrosarcoma) and Caco-2 (human colon adenocarcinoma) were cultured in standard medium DMEM (Dulbecco's modified Eagle's medium) (“Sigma”) supplemented with 10% foetal bovine serum (“Sigma”). About 2000-4000 cells per well (depending on line nature) were placed in 96-well plates and after 24 h compounds were added to the wells. Untreated cells were used as a control. The plates were incubated for 48 h, 37° C., 5% CO2. The number of surviving cells was determined using 3-(4,5-dimethylthiazol-2-yl)-2,5-diphenyltetrazolinium bromide (MTT). MTT-test: after incubating culture medium was removed and 200 μL fresh medium with 20 μL MTT (2 mg/mL in HBSS) was added in each well of the plate. After incubation (3 hr., 37° C., 5% CO2), the medium with MTT was removed and 200 μL DMSO were added at once to each sample. The samples were tested at 540 nm on Thermo Scientific Multiskan EX microplate photometer. The half-maximal inhibitory concentration (IC50) of each compound was calculated using Graph Pad Prism® 3.0.

[6] = test system: MDA-MB-231; experiment: MTT antiproliferative assay, 72 h, with or without estradiol, MDA-MB-231; assay type: cell-based, human; details: Homo sapiens, MDA-MB-231, 72 hours exposition, MTT
Experimental: as §1, §2

[7] = test system: MCF-7; experiment: MTT antiproliferative assay, 72 h, with or without estradiol, MCF-7; assay type: cell-based, human; details: Homo sapiens, MCF7, 72 hours exposition, MTT
Experimental: as §1, §2

[8] = test system: HL-60; experiment: MTT antiproliferative assay, 72 h, HL-60; assay type: cell-based, human; details: Homo sapiens, HL-60, 72 hours exposition, read-out: IC50 [μg/ml] HL-60 normal
Experimental: as §1, §2

[9] = test system: MCF-10A; experiment: Selectivity index MCF-10A versus MCF-7; assay type: cell-based; details: 72 hours exposition
Experimental: as §1
Compounds at each concentration were tested in triplicate in a single experiment and each experiment was repeated at least three times independently. […]

[10] = test system: HT-29; experiment: MTT antiproliferative assay, 72 h, HT-29; assay type: cell-based, human; details: Homo sapiens, HT-29, 72 hours exposition, read-out: IC50 [μg/ml] HT-29 normal
Experimental: as §1, with “A previously described sulforhodamine B antiproliferative assay was used with minor modifications (Skehan P et al., 1990).” left out, “MTT assay was used alternatively for HL-60 cell line and in the experiment in which estrogens are added (specified in the table legend).” left out
as §2

[11] = test system: MDA-MB-231; experiment: MTT antiproliferative assay, 48 h, MDA-MB-231; assay type: cell-based, human; details: for IC50: Homo sapiens, MDA-MB-231, 48-hour exposition, read-out: Cytotoxicity, IC50, μM MDA-MB-231
Experimental: as §3

[12] = test system: MCF-7; experiment: MTT antiproliferative assay, 48 h, MCF-7; assay type: cell-based, human; details: 48-hour exposition
Experimental: as §3

[13] = biological target: T1, PDI A3 (Homo sapiens, UniProt P30101); experiment: PDI A3 inhibition, insulin turbidimetric assay; assay type: biochemical; details: 10 ug/ml PDI A3, incubated 60 min at 37° C., turbidity at 650 nm; read-out: Inhibition of PDI A3 (EC 50)
T1 construct: purchased Mybiosource; host or cells: E. coli
T1 sequence (P30101 25-505): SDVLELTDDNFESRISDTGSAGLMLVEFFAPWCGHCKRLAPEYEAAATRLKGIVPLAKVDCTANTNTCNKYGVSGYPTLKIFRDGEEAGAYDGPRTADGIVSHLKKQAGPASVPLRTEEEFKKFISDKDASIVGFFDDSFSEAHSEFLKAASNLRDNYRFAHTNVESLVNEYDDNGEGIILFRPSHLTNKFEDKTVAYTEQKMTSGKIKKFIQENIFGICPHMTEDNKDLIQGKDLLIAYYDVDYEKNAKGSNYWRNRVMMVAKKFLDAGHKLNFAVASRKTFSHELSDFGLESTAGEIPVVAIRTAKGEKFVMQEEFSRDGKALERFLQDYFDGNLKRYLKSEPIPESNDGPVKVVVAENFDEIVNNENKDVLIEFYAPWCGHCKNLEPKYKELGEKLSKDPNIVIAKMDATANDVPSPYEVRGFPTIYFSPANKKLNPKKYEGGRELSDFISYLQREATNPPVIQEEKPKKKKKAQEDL
Experimental: The inhibitory effects compounds of invention on activity of PDIA3 was assess based on the insulin turbidimetric assay. Enzymatic activity of PDIA3 was confirmed by measuring the turbidity increase at 650 nm due to insulin reduction. The assay mixture was prepared by addition 10 ug/ml PDI A3 (E. coli recombinant protein; Mybiosource), […] phosphate buffer (pH7.6), 1 mM EDTA, 0.087 mM DTT and with or without tested compound and was incubated for 60 min, at 37° C. Reaction was started by addition of insulin and DTT. Final concentration of insulin and DTT in assay mixture were 0.15 mMv and 0.174 mMv, respectively. Turbidity was detected at 650 nm against reference samples without PDJs. The measurements were performed at 650 nm using 120-s recordings.

SMILES: COc1ccc(N2C(=O)/C(=C\c3ccc([N+](=O)[O-])s3)SC2=S)cc1 [CCF642]
IC50 [μg/ml] Caco-2 normal [1]: 0.4 ± 0.1 µg/mL (≈ 1.06 µM)
IC50 [μg/ml] MCF-7 hypoxia ([2]; hypoxia (<1% of oxygen)): 0.6 ± 0.6 µg/mL (≈ 1.59 µM)
IC50 [μg/ml] MCF-7 normal ([2]; normal (21% of oxygen)): 0.7 ± 0.5 µg/mL (≈ 1.85 µM)
IC50 [μg/ml] MDA-MB-231 hypoxia ([3]; hypoxia (<1% of oxygen)): 0.3 ± 0.2 µg/mL (≈ 0.793 µM)
IC50 [μg/ml] MDA-MB-231 normal ([3]; normal (21% of oxygen)): 0.3 ± 0.1 µg/mL (≈ 0.793 µM)
IC50 [μg/ml] HT-29 normal [4]: 0.4 ± 0.05 µg/mL (≈ 1.06 µM)

SMILES: N.N.[Cl][Pt][Cl] [Cisplatin]
IC50 [μg/ml] MCF-7 hypoxia ([2]; hypoxia (<1% of oxygen)): 1.3 ± 0.5 µg/mL
IC50 [μg/ml] MCF-7 normal ([2]; normal (21% of oxygen)): 1.8 ± 0.3 µg/mL
IC50 [μg/ml] MDA-MB-231 hypoxia ([3]; hypoxia (<1% of oxygen)): 3.1 ± 0.9 µg/mL
IC50 [μg/ml] MDA-MB-231 normal ([3]; normal (21% of oxygen)): 3.2 ± 0.5 µg/mL
IC50 [μg/ml] HT-29 normal [4]: 2.82 ± 0.6 µg/mL

SMILES: NC(=O)C1CN1S(=O)(=O)c1ccc([N+](=O)[O-])cc1 (stereo not drawn) [Compound C-3216, 1-(4-Nitrophenyl)sulfonylaziridine-2-carboxamide]
IC50 ([1]; Homo sapiens, Caco-2, read-out: IC50 [μg/ml] Caco-2 normal): 4.5 ± 0.8 µg/mL (≈ 16.6 µM)
IC50 ([2]; hypoxia (<1% of oxygen), read-out: IC50 [μg/ml] MCF-7 hypoxia): 3.6 ± 0.3 µg/mL (≈ 13.3 µM)
IC50 ([2]; normal (21% of oxygen), read-out: IC50 [μg/ml] MCF-7 normal): 3.7 ± 0.4 µg/mL (≈ 13.6 µM)
Antiproliferative effect, normoxic versus hypoxic conditions ([2]; MCF-7 and MDA-MB-231, Table 3): comparable
IC50 ([3]; hypoxia (<1% of oxygen), read-out: IC50 [μg/ml] MDA-MB-231 hypoxia): 6.2 ± 3.7 µg/mL (≈ 22.9 µM)
IC50 ([3]; normal (21% of oxygen), read-out: IC50 [μg/ml] MDA-MB-231 normal): 5 ± 1.4 µg/mL (≈ 18.4 µM)
IC50 ([4]; Homo sapiens, HT-29, read-out: IC50 [μg/ml] HT-29 normal): 5.6 ± 0.9 µg/mL (≈ 20.6 µM)

SMILES: COC(=O)C1CN1S(=O)(=O)c1ccc2cc(OC)ccc2c1 (stereo not drawn) [Compound C-3327, Methyl 1-[(6-methoxy-2-naphthyl)sulfonyl]aziridine-2-carboxylate]
IC50 ([5]; Homo sapiens, Caco-2, 48-hour exposition, read-out: Cytotoxicity, IC50, μM CaCo-2): 150 ± 10 µM

IC50 ([6]; pretreated with 200 nM estradiol, read-out: IC50 [μg/ml] MDA-MB-231 +estradiol): 3.2 ± 0.3 µg/mL (≈ 10.5 µM)
IC50 ([7]; pretreated with 200 nM estradiol, read-out: IC50 [μg/ml] MCF-7 +estradiol): 2.6 ± 0.5 µg/mL (≈ 8.54 µM)
SMILES: CN(C)C(=O)C1CN1S(=O)(=O)c1ccc2ccccc2c1 (stereo not drawn) [Compound C-3373, N,N-Dimethyl-1-(2-naphthylsulfonyl)aziridine-2-carboxamide]
IC50 ([6]; not pretreated with estradiol, read-out: IC50 [μg/ml] MDA-MB-231 normal): 3.2 ± 0.1 µg/mL (≈ 10.5 µM)
IC50 ([7]; not pretreated with estradiol, read-out: IC50 [μg/ml] MCF-7 normal): 3.3 ± 0.1 µg/mL (≈ 10.8 µM)
IC50 [8]: 3.1 ± 0.1 µg/mL (≈ 10.2 µM)
Selectivity index (SI): IC50 of MCF-10A/IC50 of MCF-7 [9]: 1.20
IC50 [10]: 33.4 ± 1.1 µg/mL (≈ 110 µM)

SMILES: COC(=O)C1CN1S(=O)(=O)c1ccc2cc(N(C)C)ccc2c1 (stereo not drawn) [Compound C-3397, Methyl 1-[[6-(dimethylamino)-2-naphthyl]sulfonyl]aziridine-2-carboxylate]
IC50 [11]: 38 ± 2 µM

EC50 [13]: 130 µM
melting point: 197 to 199 °C
SMILES: CN(C)c1ccc2c(S(=O)(=O)N3CC3C(N)=O)cccc2c1 (stereo not drawn) [Compound C-3459, 1-[[6-(Dimethylamino)-1-naphthyl]sulfonyl]aziridine-2-carboxamide]
Cytotoxicity, IC50, μM MCF-7 [12]: n.e.
Cytotoxicity, IC50, μM CaCo-2 ([5]; 48-hour exposition): n.e.
Cytotoxicity, IC50, μM MDA-MB-231 ([11]; 48-hour exposition): n.e.

SMILES: CCCCCCc1ccc(S(=O)(=O)N2CC2C(=O)N2CCOCC2)cc1 (stereo not drawn) [Compound C-3517, [1-(4-Hexylphenyl)sulfonylaziridin-2-yl]-morpholino-methanone]
IC50 [11]: 12 ± 1 µM

SMILES: O=C(C1CC1)N1CCN(Cn2sc3ccccc3c2=O)CC1 [LOC14]
IC50 [μg/ml] Caco-2 normal [1]: 9.1 ± 3.4 µg/mL (≈ 28.7 µM)
IC50 [μg/ml] MCF-7 hypoxia ([2]; hypoxia (<1% of oxygen)): 3.9 ± 0.3 µg/mL (≈ 12.3 µM)
IC50 [μg/ml] MCF-7 normal ([2]; normal (21% of oxygen)): 4.4 ± 0.9 µg/mL (≈ 13.9 µM)
IC50 [μg/ml] MDA-MB-231 hypoxia ([3]; hypoxia (<1% of oxygen)): 2.6 ± 0.5 µg/mL (≈ 8.19 µM)
IC50 [μg/ml] MDA-MB-231 normal ([3]; normal (21% of oxygen)): 2.8 ± 0.4 µg/mL (≈ 8.82 µM)
IC50 [μg/ml] HT-29 normal [4]: 12.6 ± 8.4 µg/mL (≈ 39.7 µM)
